According to patent US10889611B2, “Sialyltransferase inhibitors and uses thereof” (Academia Sinica, priority 2015, dated 2021):

What was measured:
[1] = molecular target: T1, α2,6(N)-sialyltransferases ST6GALI (Homo sapiens, UniProt P15907); experiment: Sialyltransferase inhibition assay, ST6GALI (reverse-phase HPLC); format: biochemical; conditions: for IC50: IC50 (μM) ST6GALI, α2,6-N-link
T1 construct: purchased RnDSystems.com (R&D Systems)
T1 sequence (P15907 1-406): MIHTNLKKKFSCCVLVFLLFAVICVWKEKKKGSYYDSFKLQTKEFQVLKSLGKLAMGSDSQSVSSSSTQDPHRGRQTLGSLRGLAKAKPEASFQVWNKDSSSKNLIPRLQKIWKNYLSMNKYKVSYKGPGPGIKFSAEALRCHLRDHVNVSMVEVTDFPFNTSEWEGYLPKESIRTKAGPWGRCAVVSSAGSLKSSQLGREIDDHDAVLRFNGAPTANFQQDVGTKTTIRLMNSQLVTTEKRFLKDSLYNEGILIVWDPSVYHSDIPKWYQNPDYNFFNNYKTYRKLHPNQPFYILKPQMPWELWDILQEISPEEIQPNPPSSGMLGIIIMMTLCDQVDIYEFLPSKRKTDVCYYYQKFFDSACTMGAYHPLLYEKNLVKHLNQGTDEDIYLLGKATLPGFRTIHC
Procedure: (§1) The enzymes analyzed in the present study included rat ST3Gal(I), rat ST3Gal(III), and human ST6Gal(I). Rat ST3Gal(I) and rat ST3Gal(Ill), were purchased from Calbiochem®, while human ST6Gal(I) was purchased from RnDSystems.com.
(§2) Sialyltransferase inhibition assay (α2,6-N-ST) was performed as follows: Sialyltransferase activity was determined by measuring the level of the end product of sialylated saccharides with reverse-phase HPLC. The assay mixtures contained the following components: 200 mM MES buffer; 100 mM NaCl; 0.5 mM EDTA; 0.01% Triton X-100; 1.4 mU ST6GALI; 25 μM Galβ1-4GlcNAc; 1 mM CMP-Neu5Ac and different concentration of Sialyltransferase inhibitors to a total volume of 50 μl. The assay mixture was incubated at 37° C. for 15 mins and then quenched by heating up to 101° C. for 10 mins. The sialylated product is resolved with reversed-phase HPLC. Kinetic data were obtained by fitting the initial rate data to the nonlinear regression equation.
(§3) Effects of the present compounds on the activity of sialyltransferase, including α2,3(N)-sialyltransferase ST3GALIII, α2,6(N)-sialyltransferases ST6GALI, and α2,3(O)-sialyltransferase ST3GALI, were determined in accordance with procedures described in the “Materials and Methods” section, and results are summarized in Table 1.

[2] = molecular target: T2, α2,3(O)-sialyltransferase ST3GALI (Rattus norvegicus, UniProt Q6H8N0); experiment: Sialyltransferase inhibition assay, ST3GALI (reverse-phase HPLC); format: biochemical; conditions: measured at 500 μM; read-out: ST3GALI inhibition percentage
T2 construct: purchased Calbiochem
T2 sequence (Q6H8N0 1-340): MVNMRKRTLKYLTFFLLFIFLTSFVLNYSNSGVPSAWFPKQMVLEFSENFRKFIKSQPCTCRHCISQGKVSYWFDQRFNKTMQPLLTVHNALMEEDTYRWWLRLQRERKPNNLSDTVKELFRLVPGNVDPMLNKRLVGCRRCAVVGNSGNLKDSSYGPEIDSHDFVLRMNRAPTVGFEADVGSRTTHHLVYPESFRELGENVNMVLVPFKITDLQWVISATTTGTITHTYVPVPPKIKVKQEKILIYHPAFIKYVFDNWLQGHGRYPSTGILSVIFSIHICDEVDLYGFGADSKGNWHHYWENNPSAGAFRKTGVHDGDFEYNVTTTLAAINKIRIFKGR
Procedure: as §1
as §2, with “mU ST3GALI; 2.5 mM T-antigen;” for “mU ST6GALI; 25 μM Galβ1-4GlcNAc;”, “to 101′C” for “to 101° C.”, “product was” for “product is”, “resolved by” for “resolved with”
as §3

melting point [°C] | Compound | other results
69 to 70 | C[C@H](Nc1ccc([N+](=O)[O-])c2nonc12)C(=O)N[C@@H]1CC[C@]2(C)C3CC[C@@]4(C)C(CCC4[C@H](C)CCC(=O)OCCOCCOCCN=[N+]=[N-])C3CC[C@@H]2C1 (stereo partly drawn) | –
86 to 87 | C[C@H](CCC(=O)OCCOCCOCCN=[N+]=[N-])C1CCC2C3CC[C@@H]4C[C@H](NC(=O)[C@H](Cc5c[nH]c6ccccc56)Nc5ccc([N+](=O)[O-])c6nonc56)CC[C@]4(C)C3CC[C@@]21C (stereo partly drawn) | –
128 to 130 | C[C@H](CCC(=O)O)C1CCC2C3CC[C@@H]4C[C@H](NS(=O)(=O)c5c(Cl)ccc6nonc56)CC[C@]4(C)C3CC[C@@]21C (stereo partly drawn) | –
137 to 139 | C[C@H](CCC(=O)O)C1CCC2C3CC[C@@H]4C[C@H](Nc5ccc([N+](=O)[O-])c6nonc56)CC[C@]4(C)C3CC[C@@]21C (stereo partly drawn) | –
78 to 79 | C[C@H](CCC(=O)OCCOCCOCCN=[N+]=[N-])C1CCC2C3CC[C@@H]4C[C@H](NC(=O)[C@H](CCCNC(=N)N)Nc5ccc([N+](=O)[O-])c6nonc56)CC[C@]4(C)C3CC[C@@]21C (stereo partly drawn) | –
77 to 78 | C[C@H](CCC(=O)OCCOCCOCCN=[N+]=[N-])C1CCC2C3CC[C@@H]4C[C@H](NC(=O)[C@H](CCC(=O)O)Nc5ccc([N+](=O)[O-])c6nonc56)CC[C@]4(C)C3CC[C@@]21C (stereo partly drawn) | –
134 to 136 | C[C@H](CCC(=O)O)C1CCC2C3CC[C@@H]4C[C@H](NC(=O)[C@H](CC(=O)O)Nc5ccc([N+](=O)[O-])c6nonc56)CC[C@]4(C)C3CC[C@@]21C (stereo partly drawn) | –
158 to 160 | C[C@H](CCC(=O)O)C1CCC2C3CC[C@@H]4C[C@H](NC(=O)[C@@H](N)CC(=O)O)CC[C@]4(C)C3CC[C@@]21C (stereo partly drawn) | –
64 to 65 | C[C@H](CCC(=O)OCCOCCOCCN=[N+]=[N-])C1CCC2C3CC[C@@H]4C[C@H](NC(=O)[C@H](CSC(C)(C)C)Nc5ccc([N+](=O)[O-])c6nonc56)CC[C@]4(C)C3CC[C@@]21C (stereo partly drawn) | –
68 to 69 | C[C@H](CCC(=O)OCCOCCOCCN=[N+]=[N-])C1CCC2C3CC[C@@H]4C[C@H](NC(=O)[C@H](CS)Nc5ccc([N+](=O)[O-])c6nonc56)CC[C@]4(C)C3CC[C@@]21C (stereo partly drawn) | –
72 to 73 | C[C@H](CCC(=O)OCCOCCOCCN=[N+]=[N-])C1CCC2C3CC[C@@H]4C[C@H](NC(=O)[C@H](Cc5ccc(O)cc5)Nc5ccc([N+](=O)[O-])c6nonc56)CC[C@]4(C)C3CC[C@@]21C (stereo partly drawn) | –
65 to 66 | C[C@H](CCC(=O)OCCOCCOCCN=[N+]=[N-])C1CCC2C3CC[C@@H]4C[C@H](NC(=O)[C@H](Cc5ccccc5)Nc5ccc([N+](=O)[O-])c6nonc56)CC[C@]4(C)C3CC[C@@]21C (stereo partly drawn) | –
62 to 64 | C[C@H](CCC(=O)OCCOCCOCCN=[N+]=[N-])C1CCC2C3CC[C@@H]4C[C@H](NC(=O)C5CCCN5c5ccc([N+](=O)[O-])c6nonc56)CC[C@]4(C)C3CC[C@@]21C (stereo partly drawn) | –
84 to 85 | C[C@H](CCC(=O)OCCOCCOCCN=[N+]=[N-])C1CCC2C3CC[C@@H]4C[C@H](NC(=O)[C@H](CCCCN)Nc5ccc([N+](=O)[O-])c6nonc56)CC[C@]4(C)C3CC[C@@]21C (stereo partly drawn) | –

Further lines, the molecule ahead of its results:

Compound | melting point [°C] | other results
C[C@H](CCC(=O)O)C1CCC2C3CC[C@@H]4C[C@H](NS(=O)(=O)c5cccc6c(N(C)C)cccc56)CC[C@]4(C)C3CC[C@@]21C (stereo partly drawn) | 136 to 138 | –
C[C@H](CCC(=O)O)C1CCC2C3CC[C@@H]4C[C@H](Nc5nc6ccccc6nc5Cl)CC[C@]4(C)C3CC[C@@]21C (stereo partly drawn) | 118 to 120 | –
C[C@H](CCC(=O)OCCOCCOCCN=[N+]=[N-])C1CC[C@H]2[C@@H]3CC[C@@H]4C[C@H](OC(=O)[C@H](CC(=O)O)NC(=O)c5ccc([N+](=O)[O-])cc5)CC[C@]4(C)[C@H]3CC[C@]12C (stereo partly drawn) [Compound 8, (3S)-4-(((3R,5R,8R,9S,10S,13R,14S)-17-((R)-5-(2-(2-(2-azidoethoxy)ethoxy)ethoxy)-5-oxopentan-2-yl)-10,13-dimethylhexadecahydro-1H-cyclopenta[a]phenanthren-3-yl)oxy)-3-(4-nitrobenzamido)-4-oxobutanoic acid] | 52 to 53 | selectivity ratio ST3GALI/ST6GALI [1]: >94; IC50 [1]: 5.35 ± 0.46 µM; inhibition at 500 µM [2]: 0%
C[C@H](CCC(=O)OCCOCCOCCOCCOCCN=[N+]=[N-])C1CC[C@H]2[C@@H]3CC[C@@H]4C[C@H](OC(=O)[C@H](CC(=O)O)NC(=O)c5ccc([N+](=O)[O-])cc5)CC[C@]4(C)[C@H]3CC[C@]12C (stereo partly drawn) [Compound 10, (3S)-4-(((3R,5R,8R,9S,10S,13R,14S)-17-((R)-1-azido-16-oxo-3,6,9,12,15-pentaoxaicosan-19-yl)-10,13-dimethylhexadecahydro-1H-cyclopenta[a]phenanthren-3-yl)oxy)-3-(4-nitrobenzamido)-4-oxobutanoic acid] | – | selectivity ratio ST3GALI/ST6GALI [1]: >67; IC50 [1]: 7.45 ± 0.36 µM; inhibition at 500 µM [2]: 0%
C[C@H](CCC(=O)O)C1CCC2C3CC[C@@H]4C[C@H](NS(=O)(=O)c5cc6ccccc6s5)CC[C@]4(C)C3CC[C@@]21C (stereo partly drawn) | 132 to 134 | –
C[C@H](CCC(=O)OCCOCCOCCOCCN=[N+]=[N-])C1CC[C@H]2[C@@H]3CC[C@@H]4C[C@H](OC(=O)[C@H](CC(=O)O)NC(=O)c5ccc([N+](=O)[O-])cc5)CC[C@]4(C)[C@H]3CC[C@]12C (stereo partly drawn) [Compound 9, (3S)-4-(((3R,5R,8R,9S,10S,13R,14S)-17-((R)-1-azido-13-oxo-3,6,9,12-tetraoxaheptadecan-16-yl)-10,13-dimethylhexadecahydro-1H-cyclopenta[a]phenanthren-3-yl)oxy)-3-(4-nitrobenzamido)-4-oxobutanoic acid] | – | selectivity ratio ST3GALI/ST6GALI [1]: >88; IC50 [1]: 5.7 ± 0.36 µM; inhibition at 500 µM [2]: 0%
C[C@H](CCC(=O)O)C1CCC2C3CC[C@@H]4C[C@H](Nc5ccc6ccccc6n5)CC[C@]4(C)C3CC[C@@]21C (stereo partly drawn) | 140 to 142 | –
C[C@H](CCC(=O)OCCOCCN=[N+]=[N-])C1CC[C@H]2[C@@H]3CC[C@@H]4C[C@H](OC(=O)[C@H](CC(=O)O)Nc5ccc([N+](=O)[O-])c6nonc56)CC[C@]4(C)[C@H]3CC[C@]12C (stereo partly drawn) [Compound 2, (3S)-4-(((3R,5R,8R,9S,10S,13R,14S)-17-((R)-5-(2-(2-azidoethoxy)ethoxy)-5-oxopentan-2-yl)-10,13-dimethylhexadecahydro-1H-cyclopenta[a]phenanthren-3-yl)oxy)-3-((7-nitrobenzo[c][1,2,5]oxadiazol-4-yl)amino)-4-oxobutanoic acid] | 75 to 76 | IC50 [1]: 3 to 7 µM
C[C@H](CCC(=O)O)C1CCC2C3CC[C@@H]4C[C@H](NC5=C(Cl)C(=O)c6ccccc6C5=O)CC[C@]4(C)C3CC[C@@]21C (stereo partly drawn) | 120 to 122 | –
COc1cc2nc(Cl)nc(N[C@@H]3CC[C@]4(C)C5CC[C@@]6(C)C(CCC6[C@H](C)CCC(=O)O)C5CC[C@@H]4C3)c2cc1OC (stereo partly drawn) | 178 to 180 | –
C[C@H](CCC(=O)O)C1CCC2C3CC[C@@H]4C[C@H](NS(=O)(=O)c5cccc6cccnc56)CC[C@]4(C)C3CC[C@@]21C (stereo partly drawn) | 138 to 140 | –
